Data from patent US9833497B2, “Human originated EGF domain proteins and use of the same” (CHENGDU SOURCEBIO LIMITED-LIABILITY COMPANY, priority 2013, dated 2017).

How the values were obtained:
Type in all cases: cell-based
E. coli BL21 = experiment: MIC against Gram-negative bacteria: E. coli BL21
Summary of the method: (§1)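 Read-out is absence of bacterial growth, with MIC set at the lowest recombinant protein concentration achieving it. Bacteria, pre-grown in LB to McFarland 0.5 and resuspended, were exposed at 5×10^5 CFU/mL to two-fold diluted human EGF domain proteins in triplicate at 37° C, 175 rpm.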

Aeromonas hydrophila = experiment: MIC against Gram-negative bacteria: Aeromonas hydrophila
Summary of the method: as §1

Enterobacter cloacae = experiment: MIC against Gram-negative bacteria: Enterobacter cloacae
Summary of the method: as §1

Citrobacter diversus = experiment: MIC against Gram-negative bacteria: Citrobacter diversus
Summary of the method: as §1

Pseudomonas aeruginosa = experiment: MIC against Gram-negative bacteria: Pseudomonas aeruginosa
Summary of the method: as §1

Klebsiella pneumonia = experiment: MIC against Gram-negative bacteria: Klebsiella pneumonia
Summary of the method: as §1

Proteus mirabilis = experiment: MIC against Gram-negative bacteria: Proteus mirabilis
Summary of the method: as §1

Proteus vulgaris = experiment: MIC against Gram-negative bacteria: Proteus vulgaris
Summary of the method: as §1

E. coli DH5α = experiment: Antibacterial activity: MIC and growth curve against E. coli DH5α in 96-well plate; conditions: minimal inhibitory concentration against E. coli DH5α; 96-well plate, 5×10^5 CFU/mL, 37° C., judged after 8 h
Summary of the method: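 Log-phase DH5α (OD600 about 0.5, 37° C, 185 rpm in LB) was pelleted, resuspended in fresh LB and seeded at 5×10^5 CFU/mL with recombinant protein at 50, 25 and 12.5 μg/mL (two-fold series), in triplicate. Plates were shaken at 175 rpm, 37° C, and OD600 was read every 30 min. MIC was the lowest concentration with no growth.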

Serratia marcescens = experiment: MIC against Gram-negative bacteria: Serratia marcescens
Summary of the method: as §1

Moraxella catarrhalis = experiment: MIC against Gram-negative bacteria: Moraxella catarrhalis
Summary of the method: as §1

[1] = 96-well plate, 5×10^5 CFU/mL, 37° C., 10 h
[2] = E. coli BL21, 96-well plate, 5×10^5 CFU/mL, 37° C., 10 h
[3] = Aeromonas hydrophila, 96-well plate, 5×10^5 CFU/mL, 37° C., 10 h
[4] = Enterobacter cloacae, 96-well plate, 5×10^5 CFU/mL, 37° C., 10 h
[5] = Citrobacter diversus, 96-well plate, 5×10^5 CFU/mL, 37° C., 10 h
[6] = Pseudomonas aeruginosa, 96-well plate, 5×10^5 CFU/mL, 37° C., 10 h
[7] = Klebsiella pneumonia, 96-well plate, 5×10^5 CFU/mL, 37° C., 10 h
[8] = Proteus mirabilis, 96-well plate, 5×10^5 CFU/mL, 37° C., 10 h
[9] = Proteus vulgaris, 96-well plate, 5×10^5 CFU/mL, 37° C., 10 h
[10] = Serratia marcescens, 96-well plate, 5×10^5 CFU/mL, 37° C., 10 h
[11] = Moraxella catarrhalis, 96-well plate, 5×10^5 CFU/mL, 37° C., 10 h

For “PRT725 (VPNLCKQICSHLCLLRPGGYSCACPQGSSFIEGSTTECD; listed as Homo sapiens)”, the “MIC E. coli BL21” value (E. coli BL21; [1]) was 12.5 µg/mL, the “MIC A. hydrophila” value (Aeromonas hydrophila; [1]) was 25 µg/mL and the “MIC E. cloacae” value (Enterobacter cloacae; [1]) was 12.5 µg/mL. The “MIC C. diversus” value (Citrobacter diversus; [1]) was 50 µg/mL, the “MIC P. aeruginosa” value (Pseudomonas aeruginosa; [1]) was 25 µg/mL and the “MIC K. pneumonia” value (Klebsiella pneumonia; [1]) was 50 µg/mL. The “MIC P. mirabilis” value (Proteus mirabilis; [1]) was 12.5 µg/mL, the “MIC P. vulgaris” value (Proteus vulgaris; [1]) was 50 µg/mL and the MIC (E. coli DH5α) was 25 µg/mL. The “MIC S. marcescens” value (Serratia marcescens; [1]) was 25 µg/mL and the “MIC M. catarrhalis” value (Moraxella catarrhalis; [1]) was 25 µg/mL.
“PRT1404 (RAACPVLCSGNGQYSKGRCLCFSGWKGTECD; listed as Homo sapiens)” was tested, and the “MIC against E. coli BL21” value (E. coli BL21; E. coli BL21, 5×10^5 CFU/mL, 10 h cultivation at 37° C.) was 25 µg/mL, the “MIC against A. hydrophila” value (Aeromonas hydrophila; Aeromonas hydrophila, 5×10^5 CFU/mL, 10 h cultivation at 37° C.) was 25 µg/mL and the “MIC against E. cloacae” value (Enterobacter cloacae; Enterobacter cloacae, 5×10^5 CFU/mL, 10 h cultivation at 37° C.) was 12.5 µg/mL. The “MIC against C. diversus” value (Citrobacter diversus; Citrobacter diversus, 5×10^5 CFU/mL, 10 h cultivation at 37° C.) was 50 µg/mL, the “MIC against P. aeruginosa” value (Pseudomonas aeruginosa; Pseudomonas aeruginosa, 5×10^5 CFU/mL, 10 h cultivation at 37° C.) was 50 µg/mL and the “MIC against K. pneumonia” value (Klebsiella pneumonia; Klebsiella pneumonia, 5×10^5 CFU/mL, 10 h cultivation at 37° C.) was 25 µg/mL. The “MIC against P. mirabilis” value (Proteus mirabilis; Proteus mirabilis, 5×10^5 CFU/mL, 10 h cultivation at 37° C.) was 12.5 µg/mL, the “MIC against P. vulgaris” value (Proteus vulgaris; Proteus vulgaris, 5×10^5 CFU/mL, 10 h cultivation at 37° C.) was 25 µg/mL and the MIC (E. coli DH5α) was 12.5 µg/mL. The “MIC against S. marcescens” value (Serratia marcescens; Serratia marcescens, 5×10^5 CFU/mL, 10 h cultivation at 37° C.) was 50 µg/mL and the “MIC against M. catarrhalis” value (Moraxella catarrhalis; Moraxella catarrhalis, 5×10^5 CFU/mL, 10 h cultivation at 37° C.) was 25 µg/mL.
“PRT489 (CDNGGTWEQGQCACLPGFSGDRCQLQTRCQNG; listed as Homo sapiens)” was tested, and the “MIC against E. coli BL21” value (E. coli BL21; [1]) was 12.5 µg/mL, the “MIC against A. hydrophila” value (Aeromonas hydrophila; [1]) was 25 µg/mL and the “MIC against E. cloacae” value (Enterobacter cloacae; [1]) was 12.5 µg/mL. For the same substance, the “MIC against C. diversus” value (Citrobacter diversus; [1]) was 12.5 µg/mL, the “MIC against P. aeruginosa” value (Pseudomonas aeruginosa; [1]) was 12.5 µg/mL and the “MIC against K. pneumonia” value (Klebsiella pneumonia; [1]) was 25 µg/mL. For the same substance, the “MIC against P. mirabilis” value (Proteus mirabilis; [1]) was 50 µg/mL, the “MIC against P. vulgaris” value (Proteus vulgaris; [1]) was 25 µg/mL and the MIC (E. coli DH5α) was 12.5 µg/mL. The “MIC against S. marcescens” value (Serratia marcescens; [1]) was 12.5 µg/mL and the “MIC against M. catarrhalis” value (Moraxella catarrhalis; [1]) was 25 µg/mL.
For “PRT78 (KKNVCDSNTCHNGGTCVNQWDAFSCECPLGFGGKSCA; listed as Homo sapiens)”, the “MIC (μg/mL) E. coli BL21” value (E. coli BL21; [2]) was 25 µg/mL, the “MIC (μg/mL) A. hydrophila” value (Aeromonas hydrophila; [3]) was 25 µg/mL and the “MIC (μg/mL) E. cloacae” value (Enterobacter cloacae; [4]) was 50 µg/mL. For the same substance, the “MIC (μg/mL) C. diversus” value (Citrobacter diversus; [5]) was 50 µg/mL, the “MIC (μg/mL) P. aeruginosa” value (Pseudomonas aeruginosa; [6]) was 50 µg/mL and the “MIC (μg/mL) K. pneumonia” value (Klebsiella pneumonia; [7]) was 25 µg/mL. The “MIC (μg/mL) P. mirabilis” value (Proteus mirabilis; [8]) was 50 µg/mL, the “MIC (μg/mL) P. vulgaris” value (Proteus vulgaris; [9]) was 50 µg/mL and the MIC (E. coli DH5α) was 50 µg/mL. For the same substance, the “MIC (μg/mL) S. marcescens” value (Serratia marcescens; [10]) was 12.5 µg/mL and the “MIC (μg/mL) M. catarrhalis” value (Moraxella catarrhalis; [11]) was 50 µg/mL.
Work on “PRT1003 (STDYCVSAPCFNGGTCVNRPGTFSCLCAMGFQGPRCE; listed as Homo sapiens)” yielded an MIC (E. coli BL21; E. coli BL21, 10 h cultivation at 37° C.) of 12.5 µg/mL, an MIC (Aeromonas hydrophila; A. hydrophila, 10 h cultivation at 37° C.) of 25 µg/mL and an MIC (Enterobacter cloacae; E. cloacae, 10 h cultivation at 37° C.) of 25 µg/mL. For the same substance, the MIC (Citrobacter diversus; C. diversus, 10 h cultivation at 37° C.) was 12.5 µg/mL, the MIC (Pseudomonas aeruginosa; P. aeruginosa, 10 h cultivation at 37° C.) was 25 µg/mL and the MIC (Klebsiella pneumonia; K. pneumonia, 10 h cultivation at 37° C.) was 50 µg/mL. The MIC (Proteus mirabilis; P. mirabilis, 10 h cultivation at 37° C.) was 50 µg/mL, the MIC (Proteus vulgaris; P. vulgaris, 10 h cultivation at 37° C.) was 25 µg/mL and the MIC (E. coli DH5α) was 50 µg/mL. The MIC (Serratia marcescens; S. marcescens, 10 h cultivation at 37° C.) was 12.5 µg/mL and the MIC (Moraxella catarrhalis; M. catarrhalis, 10 h cultivation at 37° C.) was 25 µg/mL.
“PRT643 (RVVICHLPCMNGGQCSSRDKCQCPPNFTGKLCQ; listed as Homo sapiens)” was tested, and the “MIC E. coli BL21” value (E. coli BL21; [1]) was 25 µg/mL, the “MIC A. hydrophila” value (Aeromonas hydrophila; [1]) was 25 µg/mL and the “MIC E. cloacae” value (Enterobacter cloacae; [1]) was 12.5 µg/mL. For the same substance, the “MIC C. diversus” value (Citrobacter diversus; [1]) was 50 µg/mL, the “MIC P. aeruginosa” value (Pseudomonas aeruginosa; [1]) was 50 µg/mL and the “MIC K. pneumonia” value (Klebsiella pneumonia; [1]) was 25 µg/mL. For the same substance, the “MIC P. mirabilis” value (Proteus mirabilis; [1]) was 12.5 µg/mL, the “MIC P. vulgaris” value (Proteus vulgaris; [1]) was 25 µg/mL and the MIC (E. coli DH5α) was 12.5 µg/mL. For the same substance, the “MIC S. marcescens” value (Serratia marcescens; [1]) was 50 µg/mL and the “MIC M. catarrhalis” value (Moraxella catarrhalis; [1]) was 25 µg/mL.
“PRT1318 (DCTQCPGGFSNPCYGKGNCSDGIQGNGACLCFPDYKGIACH; listed as Homo sapiens)” was tested, and the “MIC against E. coli BL21” value (E. coli BL21; [2]) was 12.5 µg/mL, the “MIC against A. hydrophila” value (Aeromonas hydrophila; [3]) was 12.5 µg/mL and the “MIC against E. cloacae” value (Enterobacter cloacae; [4]) was 25 µg/mL. The “MIC against C. diversus” value (Citrobacter diversus; [5]) was 50 µg/mL, the “MIC against P. aeruginosa” value (Pseudomonas aeruginosa; [6]) was 25 µg/mL and the “MIC against K. pneumonia” value (Klebsiella pneumonia; [7]) was 50 µg/mL. For the same substance, the “MIC against P. mirabilis” value (Proteus mirabilis; [8]) was 25 µg/mL, the “MIC against P. vulgaris” value (Proteus vulgaris; [9]) was 50 µg/mL and the MIC (E. coli DH5α) was 25 µg/mL. For the same substance, the “MIC against S. marcescens” value (Serratia marcescens; [10]) was 25 µg/mL and the “MIC against M. catarrhalis” value (Moraxella catarrhalis; [11]) was 12.5 µg/mL.
